Measured values published in US6706664B1, “Benzoxazole compounds, process for the preparation thereof and herbicides” (UBE Industries, Ltd., priority 1999, dated 2004).

Key:
Parameters in all cases: key: 0: normal development; 1: Less damaged; 2: Slightly damaged; 3: Moderately damaged; 4: Severely damaged; 5: All killed
[1] = test system: young rice plant; assay: Herbicidal test for paddy field; assay type: in vivo; conditions: paddy field pot, 500 g/ha dropwise at 1.5 leaf stage of barnyardgrass, 3 weeks, rank vs non-treated
Method in brief: (§1)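 Under flooded conditions (3 cm water over Ube soil), each compound was delivered by pipet as a diluted wettable powder (0.05% surfactant) at 500 g/ha, timed to 1.5-leaf barnyardgrass. Plants stayed 3 weeks in a 25° C glasshouse before injury was graded from 0 (normal) to 5 (all killed).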

[2] = test system: barnyardgrass; assay: Herbicidal test for paddy field; assay type: in vivo, Echinochloa crusgalli; conditions: paddy field pot, 500 g/ha dropwise at 1.5 leaf stage of barnyardgrass, 3 weeks, rank vs non-treated
Method in brief: as §1

[3] = test system: bulrush; assay: Herbicidal test for paddy field; assay type: in vivo, Scrips juncoides; conditions: paddy field pot, 500 g/ha dropwise at 1.5 leaf stage of barnyardgrass, 3 weeks, rank vs non-treated
Method in brief: as §1

[4] = test system: flat sedge; assay: Herbicidal test for paddy field; assay type: in vivo, Cyperus serotinus; conditions: paddy field pot, 500 g/ha dropwise at 1.5 leaf stage of barnyardgrass, 3 weeks, rank vs non-treated
Description: Wagner pots, each having an area of 1/5000 are, were packed with Ube soil (alluvial soil) and planted with seeds or tubers of young rice plant, barnyardgrass, bulrush, flat sedge and monochoria. Then, the pots were filled with water to a depth of 3 cm.
Each wettable powder of the desired compounds (I) shown in Table 1 prepared in accordance with Example 2 was diluted with water containing a surfactant (0.05%) and subjected to dropwise addition treatment by using pipet so that an effective concentration of the compound (I) in each herbicide became 500 g/ha at 1.5 leaf stage of barnyardgrass.
These plants were controlled in a glass house at an average temperature of 25° C. for 3 weeks, and then herbicidal effects thereof were investigated.
The herbicidal effects are evaluated according to the following 6 ranks as compared with non-treated district.
(§2) (0: normal development, 1: Less damaged, 2: Slightly damaged, 3: Moderately damaged, 4: Severely damaged, 5: All killed).

[5] = test system: monochoria; assay: Herbicidal test for paddy field; assay type: in vivo, Monochoria vaginalis; conditions: paddy field pot, 500 g/ha dropwise at 1.5 leaf stage of barnyardgrass, 3 weeks, rank vs non-treated
Method in brief: as §1

[6] = test system: corn; assay: Foliar spread test for upland field; assay type: in vivo; conditions: foliar spray 500 ppm, 3 weeks, rank vs non-treated
Method in brief: (§3)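 Seeds are planted in pots of volcanic ash soil and grown roughly 2 weeks under glass. Foliage then receives a uniform spray of compound at 500 ppm in water with 0.5% surfactant. Herbicidal damage is rated 0–5 after 3 weeks at an average 25° C.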

[7] = test system: cotton; assay: Foliar spread test for upland field; assay type: in vivo; conditions: foliar spray 500 ppm, 3 weeks, rank vs non-treated
Method in brief: as §3

[8] = test system: solgum; assay: Foliar spread test for upland field; assay type: in vivo; conditions: foliar spray 500 ppm, 3 weeks, rank vs non-treated
Method in brief: as §3

[9] = test system: soybean; assay: Foliar spread test for upland field; assay type: in vivo; conditions: foliar spray 500 ppm, 3 weeks, rank vs non-treated
Method in brief: as §3

[10] = test system: sugar beat; assay: Foliar spread test for upland field; assay type: in vivo; conditions: foliar spray 500 ppm, 3 weeks, rank vs non-treated
Method in brief: as §3

[11] = test system: wheat; assay: Foliar spread test for upland field; assay type: in vivo; conditions: foliar spray 500 ppm, 3 weeks, rank vs non-treated
Method in brief: as §3

[12] = test system: Large crabgrass; assay: Foliar spread test for upland field; assay type: in vivo, Digitaria adscendens; conditions: foliar spray 500 ppm, 3 weeks, rank vs non-treated
Method in brief: (§4)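 Two-week-old glasshouse seedlings on volcanic ash soil were treated by foliar spray at 500 ppm, with 0.5% surfactant in the diluent. Effects were graded visually after three weeks, from 0 for no injury to 5 for complete kill.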

[13] = test system: barnyardgrass; assay: Foliar spread test for upland field; assay type: in vivo, Echinochloa crusgalli; conditions: foliar spray 500 ppm, 3 weeks, rank vs non-treated
Source text: as §2
Wagner pots, each having an area of 1/5000 are, were packed with volcanic ash soil and then each seed of corn, soybean, cotton, wheat, solgum, sugar beat, Large crabgrass, barnyardgrass, green foxtail, blackgrass, annual bluegrass, common lambsquartes, livid amaranth, velvetleaf and morning glory was planted, covered with soil and grown in a glass house at an average temperature of […] for about 2 weeks.
Each wettable powder of the desired compounds (I) shown in Table 1 prepared in accordance with Example 2 was diluted to 500 ppm with water containing a surfactant (0.5%) and then uniformly sprayed on the above respective plants.
After these plants were controlled in a glass house at an average temperature of 25° C. for 3 weeks, the herbicidal effects thereof were investigated.
The herbicidal effects were evaluated according to the evaluation method described in the above (1).

[14] = test system: green foxtail; assay: Foliar spread test for upland field; assay type: in vivo, Setaria viridis; conditions: foliar spray 500 ppm, 3 weeks, rank vs non-treated
Method in brief: as §4

[15] = test system: blackgrass; assay: Foliar spread test for upland field; assay type: in vivo, Alopecurus aegualis; conditions: foliar spray 500 ppm, 3 weeks, rank vs non-treated
Method in brief: as §4

[16] = test system: annual bluegrass; assay: Foliar spread test for upland field; assay type: in vivo, Poa annua; conditions: foliar spray 500 ppm, 3 weeks, rank vs non-treated
Method in brief: as §4

[17] = test system: common lambsquartes; assay: Foliar spread test for upland field; assay type: in vivo, Chenopodium album; conditions: foliar spray 500 ppm, 3 weeks, rank vs non-treated
Method in brief: as §4

[18] = test system: livid amaranth; assay: Foliar spread test for upland field; assay type: in vivo, Amaranthus lividus; conditions: foliar spray 500 ppm, 3 weeks, rank vs non-treated
Method in brief: as §4

[19] = test system: velvetleaf; assay: Foliar spread test for upland field; assay type: in vivo, Abutilon theophrasti; conditions: foliar spray 500 ppm, 3 weeks, rank vs non-treated
Method in brief: as §4

[20] = test system: morning glory; assay: Foliar spread test for upland field; assay type: in vivo, Ipomoea spps.; conditions: foliar spray 500 ppm, 3 weeks, rank vs non-treated
Method in brief: as §4

`CCCC(Oc1cccc(C#N)c1)c1nc2cc(Cl)ccc2o1` (centres unmarked) [Compound 457] was tested, and the “Effect Young rice plant” value [1] was 1, the “Effect Barnyardgrass” value [2] was 4 and the “Effect Bulrush” value [3] was 4. For the same compound, the “Effect Flat sedge” value [4] was 4, the “Effect Monochoria” value [5] was 4 and the “Effects Corn” value [6] was 1. The “Effects Cotton” value [7] was 3, the “Effects Solgum” value [8] was 2 and the “Effects Soybean” value [9] was 3. The “Effects Sugar beat” value [10] was 3, the “Effects Wheat” value [11] was 2 and the “Effects Large crabgrass” value [12] was 2. For the same compound, the “Effects Barnyardgrass” value [13] was 2, the “Effects Green foxtail” value [14] was 3 and the “Effects Blackgrass” value [15] was 2. The “Effects Annual bluegrass” value [16] was 2, the “Effects Common lambsquarters” value [17] was 3 and the “Effects Livid amaranth” value [18] was 4. For the same compound, the “Effects Velvetleaf” value [19] was 3 and the “Effects Morning glory” value [20] was 3.
